{"source": "patent US20090215851A1", "about": "“Method of Preparing a Porphyrin Derivative, a Porphyrin Derivative, Use of Said Porphyrin derivative and a pharmaceutical composition containing said porphyrin derivative” (PHOTOBIOCHEM N.V., priority 2005, published 2009)", "key": {"[1]": {"test_system": "subcutaneous mammary CaNT tumors", "assay": "Mouse tumor model, PDT", "assay_type": "in vivo", "conditions": "for persistence of phototoxic effect with time after injection (FIG. 9): different intervals between injection and illumination", "description": "Experiments were performed to investigate the suitability of compound 7 for the photodynamic therapy (PDT) treatment of tumors, in particular subcutaneous mammary CaNT tumors. These experiments were performed by Photopharmica Ltd. under the guidance of Professor Stan Brown in the Centre for Photobiology and Photodynamic Therapy (Leeds, UK). Different doses of compound 7 (dissolved in Water:PEG-400:1-Methyl-2-pyrrolidone (50:30:20 v/v), with a maximum concentration of 0.5 mg/ml at pH 8.1) were intravenously injected and tumors were illuminated with red light (685±15 nm, 60 J/cm^2, 50 mW/cm^2) at different intervals after injection."}, "CAM blood vessels": {"test_system": "CAM blood vessels", "assay": "AMD model: CAM (chorioallantoic membrane) model in fertilized chicken eggs, PDT", "assay_type": "in vivo", "description": "Age-related Macula Degeneration (AMD) is an eye affliction that eventually leads to blindness. For studies to treat this affliction, an AMD model exists, the so-called CAM (chorioallantoic membrane) model in fertilized chicken eggs. The blood vessels in this chorioallantoic membrane mimic a number of relevant features characteristic for the blood vessels in the eye involved in causing AMD. Experiments with compound 7 were performed at the department of Professor Hubert van den Bergh of the EPFL in Lausanne. Different doses of compound 7 (dissolved in Water:PEG-400:1-Methyl-2-pyrrolidone (50:30:20 v/v), pH 8.1) were injected in the CAM blood vessels and the vessels were illuminated after an 1 minute time-to-treat interval using different amounts of light energy from a far red light source. In the experiments, Visudyne™ (which has an absorption peak at 690 nm), the only photosensitizer approved for clinical use in AMD, was used as the control.\nCompound 7 was as potent (already with a low light dose of 24 J/cm^2 and 1 mg/kg of body weight of photosensitizer 7 the desired grade 3 vessel damage could be obtained) as Visudyne™ in closing blood vessels in this model. […] (Legend: A: Compound 7 fluorescence angiography before PDT; B: compound 7 fluorescence angiography during PDT, shown in the circle is the red light irradiation area; C: sulforhodamine 101 fluorescence angiography 18 hours post-treatment)."}, "[2]": {"test_system": "A 549 lung carcinoma cells", "assay": "Dark toxicity test, MTT assay", "assay_type": "cell-based", "conditions": "overnight in the dark at 37° C; concentrations up to 30 μg/ml", "description": "First a toxicity test of compound 5 in cultures of A 549 lung carcinoma cells (American Type Culture Collection) was carried out in the dark. The cells were incubated in a medium containing compound 5 at various concentrations. The cultures were left overnight in the dark at 37° C. Using the MTT (3-(4,5-dimethylthiazol-2-yl)-2,5-diphenyltetrazolium bromide) assay based on the methods of Tada et al (J. Immunol. Meth., 1986, 93, pp. 157-165) and J. Carmichael et al (Cancer Res., 1987, 47, pp. 936-942.) the cell survival was obtained as a percentage of untreated cells of control (FIG. 2). Even at concentrations up to 30 μg/ml in the medium cell survival was complete (within the experimental error), showing that compound 5 is essentially not toxic towards the lung carcinoma cells in the dark."}, "[3]": {"assay": "Photochemical singlet oxygen generation (emission at 1270 nm after laser excitation in toluene)", "assay_type": "physicochemical", "conditions": "laser excitation 532 nm, singlet oxygen generating conditions", "description": "Compound B dissolved in toluene was excited with a 9 mJ, 15 ns laser pulse at 532 nm from a home-built Q-switched frequency doubled Nd:YAG laser operating at 10 Hz. Emission from singlet oxygen at 1270 nm was detected at 90° to the quartz cuvette by an InGaAs photodiode, amplified and then signal-averaged (256 shots) on a digital oscilloscope (HP infinium). A 1260 nm interference filter (FWHM=75 nm) was used to protect the detector from laser light and sensitizer fluorescence. Typical decay times were 28±1 μs, which is characteristic for singlet oxygen decay in toluene (M. Okamoto et al, J. Phys. Chem., 1993, 97, pp. 177-180.) Tetraphenylporphyrin was used as a standard to determine the relative singlet oxygen yield (ΦΔ) (F. Wilkinson, et al, J. Phys. Chem. Ref. Data., 1993, 22, pp. 113-2162.). The relative quantum yield for compound 5 in air saturated toluene was 0.72. […] This stability of the compound according to the invention as exemplified by compound 5 towards singlet oxygen is surprising. In many porphyrins with appending double bonds the double bond reacts chemically with the singlet oxygen generated by the system. […]"}, "[4]": {"test_system": "A 549 lung carcinoma cells", "assay": "Photodynamic cytotoxicity after illumination with white halogen light, MTT assay", "assay_type": "cell-based", "conditions": "0.10 μg/ml"}}, "data": [{"molecule": "2′-cyano-8′-formyl-N′-methyl-1′,1a′,5a′,6′-tetrahydroacrido[4,5,5a,6-bcd]-annulated 2,3-dihydromesoporphyrin dicarboxylic acid [compound 7]", "values": [{"measurement": "damage to internal tissue surrounding the tumor", "setting": "[1]; after light treatment", "result": "comparable to Photofrin™"}, {"measurement": "damage to the skin overlaying the tumor, in contrast to Photofrin™", "setting": "[1]; after light treatment", "result": "less damage"}, {"measurement": "skin photosensitivity", "setting": "[1]; at the effective tumor dose, within 24 hours after drug administration", "result": "lacking skin photosensitivity"}, {"measurement": "persistence of phototoxic effect with time after injection (FIG. 9)", "setting": "[1]", "result": "vanishes rapidly in a couple of hours"}, {"measurement": "PDT effect, light 2 minutes after injection", "setting": "[1]; drug-to-light interval 2 minutes", "result": "already present immediately"}, {"measurement": "PDT effect, light 180 minutes after injection", "setting": "[1]; drug-to-light interval 180 minutes", "result": "virtually absent"}, {"measurement": "dose with good tumor killing potential in vivo", "setting": "[1]; intravenous, red light 685±15 nm, 60 J/cm^2, 50 mW/cm^2", "result": "around 2.5 mg/kg"}, {"measurement": "effect on tumor-necrosis and skin damage, light a couple of hours after injection", "setting": "[1]; treatment with light a couple of hours after injection", "result": "no effect"}, {"measurement": "effect of PDT on small CAM blood vessels (FIG. 7)", "setting": "CAM blood vessels; 12 J/cm^2 at 1 mg/kg body weight, angiography 18 hours post-treatment", "result": "closing of the small CAM blood vessels"}, {"measurement": "potency in closing blood vessels compared with Visudyne™", "setting": "CAM blood vessels; CAM model, far red light", "result": "as potent"}, {"measurement": "leakage from the CAM blood vessels compared with Visudyne™", "setting": "CAM blood vessels; fluorescence microscopy", "result": "much less leakage"}, {"measurement": "vessel damage grade", "setting": "CAM blood vessels; light dose 24 J/cm^2, 1 mg/kg of body weight, 1 minute time-to-treat interval", "result": 3, "unit": "grade"}]}, {"molecule": "Photofrin™ [reference compound]", "values": [{"measurement": "dose needed for the same percentage of necrotic area (FIG. 8), compared with compound 7", "setting": "[1]; % necrotic area versus dose", "result": "requires a higher dose for the same effect"}, {"measurement": "persistence of phototoxic effect with time after injection (FIG. 9)", "setting": "[1]", "result": "remains phototoxic after several hours"}, {"measurement": "potency relative to compound 7 (fold)", "setting": "[1]; mouse tumor model, estimated", "result": "2.5 times less potent than compound 7"}]}, {"molecule": "2′-cyano-8′-formyl-N-methyl-1,1a,5a,6-tetrahydroacrido-[4,5,5a,6-bcd]-annulated 2,3-dihydromesoporphyrin dimethylester [compound 5]", "values": [{"measurement": "cell survival as a percentage of untreated cells (dark toxicity)", "setting": "[2]", "result": "complete"}, {"measurement": "photo degradation as measured by changes in the absorption spectrum", "setting": "[3]", "result": "No photo degradation"}, {"measurement": "lung carcinoma cells killed", "setting": "[4]; 4 hours incubation in the dark, then white halogen light 30 mW/cm^2 (270 kJ/m^2)", "result": 70, "unit": "%"}, {"measurement": "photodynamic cytotoxicity compared with mTHPC (Foscan®)", "setting": "[4]; 4 hours incubation, white halogen light 30 mW/cm^2 (270 kJ/m^2), FIG. 3", "result": "comparable"}]}, {"molecule": "Oc1cccc(-c2c3nc(c(-c4cccc(O)c4)c4ccc([nH]4)c(-c4cccc(O)c4)c4nc(c(-c5cccc(O)c5)c5ccc2[nH]5)CC4)C=C3)c1", "note": "[Foscan, mTHPC, reference compound]", "values": [{"measurement": "potency relative to compound 7", "setting": "[1]; mouse tumor model, estimated", "result": "more potent than compound 7"}]}]}
